Results reported in article PMC3337729 (Anesthesiology, 2011).

How the values were obtained:
[1] = target: T1, Complex I (NADH-ubiquinone oxidoreductase) (Rattus norvegicus, UniProt A6K8N6+P03889+Q5XIH3+Q641Y2); experiment: rotenone-sensitive NADH oxidation, absorbance at […] nm; assay type: biochemical; conditions: 0.2 mM NADH, antimycin A present
[2] = target: T1, Complex I (NADH-ubiquinone oxidoreductase); experiment: as above; assay type: biochemical; conditions: read-out: % of control activity at 0.5 mM

Q: NC(=O)C1=CN([C@@H]2O[C@H](COP(=O)(O)OP(=O)(O)OC[C@H]3O[C@@H](n4cnc5c(N)ncnc54)[C@H](O)[C@@H]3O)[C@@H](O)[C@H]2O)C=CC1 [NADH] was tested. Which “rotenone-sensitive NADH oxidation, absorbance at 340 nm” value ([1]; decylubiquinone acceptor) did it give?
A: Complex I activity was determined by the rotenone-sensitive reduction of NADH absorbance using decylubiquinone

Q: How did the “rotenone-sensitive NADH oxidation, absorbance at 340 nm” value ([1]; decylubiquinone printed as 75 mM) turn out when CCCCCCCCCCC1=C(C)C(=O)C(OC)=C(OC)C1=O [decylubiquinone] was run?
A: rotenone-sensitive reduction of NADH absorbance using decylubiquinone as acceptor

Q: Which remaining activity at 500 µM [2] does the source give for FC(F)OC(Cl)C(F)(F)F (stereo not drawn) [isoflurane] here?
A: 86 ± 5%
